The text below walks through data of patent publication US11440918B2, “p38α mitogen-activated protein kinase inhibitors” (priority 2020, dated 2022).

For orientation: IC50 means the concentration at which inhibition is half-maximal. The Kd is the equilibrium constant for the complex coming apart.

The test system of data set [1] is SARS-CoV-2 isolate BetaCoV/France/IDF0372/2020 (SARS-CoV-2 Paris). Kind of data set: SARS-CoV-2 anti-viral assay Paris (viral genomes by RT-qPCR). The format is cell-based. To be noted: Severe acute respiratory syndrome coronavirus 2; SARS-CoV-2 Paris isolate, 48 hours.
For another data set, the system named is SARS-CoV-2. The data set can be described thus: microbe, parasite or virus in culture. The note with it: Severe acute respiratory syndrome coronavirus 2, read-out: IC50 for anti-SARS-CoVID-19 activity. The format is cell-based.
For data set [2], the system named is SARS-CoV-2, isolate USA-WA1/2020 (SARS-CoV-2 New York). Kind of data set: SARS-CoV-2 anti-viral assay New York (N-protein staining). Type of data set: cell-based. The note with it: Severe acute respiratory syndrome coronavirus 2; SARS-CoV-2 New York isolate, 48 hours; read-out: Anti-Viral NY IC50.
The conditions of data set [3]: 10 μM.
The conditions of data set [4]: 10 μM. This is another data set of the same source.
For data set [5] the following is noted: 10 μM. This is another data set of the same source.
For another data set, the target named is p38β (Homo sapiens (Human), UniProt Q15759). The data set can be described thus: Surface plasmon resonance (SPR) assay, Biacore T200. (SPR reads the build-up and loss of mass on a sensor chip optically.)
Data set [6] has as its system SARS-CoV-2 isolate BetaCoV/France/IDF0372/2020 (SARS-CoV-2 Paris). Kind of data set: Viral quantification via plaque assay in Paris. Type of data set: cell-based. The note with it: Severe acute respiratory syndrome coronavirus 2.

Chain of p38β (Q15759 whole entry): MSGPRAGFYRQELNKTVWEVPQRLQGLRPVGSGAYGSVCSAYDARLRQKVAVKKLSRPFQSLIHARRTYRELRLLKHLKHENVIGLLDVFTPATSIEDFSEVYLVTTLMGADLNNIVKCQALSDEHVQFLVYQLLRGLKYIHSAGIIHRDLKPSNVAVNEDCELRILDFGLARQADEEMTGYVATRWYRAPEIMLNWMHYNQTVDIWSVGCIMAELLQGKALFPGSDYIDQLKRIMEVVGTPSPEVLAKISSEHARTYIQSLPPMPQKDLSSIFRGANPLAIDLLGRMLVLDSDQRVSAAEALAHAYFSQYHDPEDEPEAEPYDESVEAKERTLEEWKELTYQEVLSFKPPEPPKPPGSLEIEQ

Regarding `O=C(Nc1ccc(CN2CCC(O)C2)cc1)c1ccc(Cl)cc1` (stereo not drawn) [Compound 13, 4-chloro-N-(4-((3-hydroxypyrrolidin-1-yl)methyl)phenyl)benzamide], the values for the IC50 (in data set [1]; in the data set with SARS-CoV-2) were 3400 nM and under 10000 nM, respectively.

For `O=C(Nc1ccc(CN2CCC3(CCCO3)C2)cc1)c1ccc(Cl)cc1` (stereo not drawn) [Compound 6, N-(4-((1-oxa-7-azaspiro[4.4]nonan-7-yl)methyl)phenyl)-4-chlorobenzamide], the IC50 in data set [1] is 2900 nM; in data set [2] it was 6400 nM; in the data set on SARS-CoV-2 it was under 10000 nM. The “stable in human plasma” value in data set [3] is “at least 4 hours”. The “stable in monkey plasma” value in data set [4] is reported as “at least 4 hours”. Besides, the “stable in rat plasma” value in data set [5] was “at least 4 hours”. The Kd on p38β was under 10 nM.

In the case of `C[C@H]1CN(Cc2ccc(NC(=O)c3ccc(Cl)cc3)cc2)C[C@H](C)O1` [Compound 8, 4-chloro-N-(4-(((2S,6S)-2,6-dimethylmorpholino)methyl)phenyl)benzamide], in the data set on SARS-CoV-2, the IC50 was under 10000 nM. In addition, in data set [3], the “stable in human plasma” value is reported as “at least 4 hours”. Besides, the “stable in monkey plasma” value in data set [4] is given as “at least 4 hours”. Moreover, the “stable in rat plasma” value in data set [5] was “at least 4 hours”. The compound further yielded a Kd at p38β of under 10 nM.

As to `CN1CCN(Cc2ccc(NC(=O)c3ccc(Cl)cc3)cc2)CC1` [Compound 17, 4-chloro-N-(4-((4-methylpiperazin-1-yl)methyl)phenyl)benzamide], the IC50 in data set [1] is 3600 nM; in data set [2] it was 700 nM; in data set [6], 2700 nM; with SARS-CoV-2, under 10000 nM.

For `O=C(Nc1ccc(CN2CC3(COC3)C2)cc1)c1ccc(Cl)cc1` [Compound 2, N-(4-((2-oxa-6-azaspiro[3.3]heptan-6-yl)methyl)phenyl)-4-chlorobenzamide], the IC50 was 7800 nM in data set [1], 1200 nM in data set [2] and under 10000 nM in the data set on SARS-CoV-2.

As to `O=C(Nc1ccc(CN2C[C@@H]3COC[C@@H](C3)C2)cc1)c1ccc(Cl)cc1` [Compound 9, N-(4-(((1R,5S)-3-oxa-7-azabicyclo[3.3.1]nonan-7-yl)methyl)phenyl)-4-chlorobenzamide], the midpoint of inhibition in data set [1], the IC50, lay at 3100 nM.

As for `CC(=O)N1CCN(Cc2ccc(NC(=O)c3ccc(Cl)cc3)cc2)CC1` [Compound 14, N-(4-((4-acetylpiperazin-1-yl)methyl)phenyl)-4-chlorobenzamide], in data set [3], the “stable in human plasma” value is given as “at least 4 hours”. In addition, in data set [4], the “stable in monkey plasma” value is given as “at least 4 hours”. For the same compound, the “stable in rat plasma” value in data set [5] is “at least 4 hours”. In addition, the Kd on p38β was under 10 nM.

For `O=C(Nc1ccc(CN2C[C@H]3COC[C@H]3C2)cc1)c1ccc(Cl)cc1` [Compound 10, 4-chloro-N-(4-(((3aR,6aS)-tetrahydro-1H-furo[3,4-c]pyrrol-5(3H)—1)methyl)phenyl)benzamide], the figures for the IC50 in data set [1], in data set [2] and in data set [6] were 1300 nM, 200 nM and 2800 nM, respectively. In data set [3], the “stable in human plasma” value is recorded as “at least 4 hours”. For the same compound, the “stable in monkey plasma” value in data set [4] is on record as “at least 4 hours”. Moreover, in data set [5], the “stable in rat plasma” value is “at least 4 hours”.

Take `O=C(Nc1ccc(CN2CCOCC2)cc1)c1cnc(Cl)nc1` [Compound 3, 2-chloro-N-(4-(morpholinomethyl)phenyl)pyrimidine-5-carboxamide]: the IC50 in data set [1] is 9400 nM; in data set [2] it was 1200 nM; in the data set with SARS-CoV-2, under 10000 nM.

Regarding `O=C(Nc1ccc(CN2CC3(CCOCC3)C2)cc1)c1ccc(Cl)cc1` [Compound 4, N-(4-((7-oxa-2-azaspiro[3.5]nonan-2-yl)methyl)phenyl)-4-chlorobenzamide], the IC50 in data set [1] was 2100 nM; in data set [2] it was 700 nM; in data set [6], 1400 nM; in the data set on SARS-CoV-2, under 10000 nM.

With `O=C(Nc1ccc(CN2CCCOCC2)cc1)c1ccc(Cl)cc1` [Compound 1, N-(4-((1,4-oxazepan-4-yl)methyl)phenyl)-4-chlorobenzamide], the IC50 in data set [1] is 600 nM; in data set [2] it was 700 nM; in data set [6], 1800 nM; in the data set with SARS-CoV-2, under 10000 nM. Besides, the “stable in human plasma” value in data set [3] is on record as “at least 4 hours”. Further, in data set [4], the “stable in monkey plasma” value is recorded as “at least 4 hours”. For the same compound, in data set [5], the “stable in rat plasma” value is reported as “at least 4 hours”. Besides, at p38β, the Kd is under 10 nM.

`O=C(Nc1ccc(CN2CCC(O)CC2)cc1)c1ccc(Cl)cc1` [Compound 11, 4-chloro-N-(4-((4-hydroxypiperidin-1-yl)methyl)phenyl)benzamide]: the IC50 in data set [1] was 1600 nM; in data set [2] it was 200 nM; in data set [6] it was 2100 nM; with SARS-CoV-2, under 10000 nM.
